In brackets after ≈: the same amount, converted by molar mass. Activity calls are given as the source filed them. The rule behind the calls is not given here.
What was measured:
Candida albicans [1] = test: Antifungal activity against Candida albicans ATCC 90028 infected in Galleria mellonella larvae assessed as induction of pathogen entrapping by haemocytes at 10 uL measured at 24 hrs interval for 144 hrs by HE staining based microscopic analysis; format: functional, organism-based
Candida albicans [2] = test: Antifungal activity against Candida albicans ATCC 90028 assessed as planktonic growth inhibition at 0.09 uM after 48 hrs by M27-A3 protocol based method relative to control; format: functional; conditions: ATCC 90028, 48 h, read-out: GI
Candida albicans [3] = test: Antifungal activity against Candida albicans ATCC 90028 assessed as planktonic growth inhibition at 11.38 uM after 48 hrs by M27-A3 protocol based method relative to control; format: functional; conditions: ATCC 90028, 48 h, read-out: GI
Candida albicans [4] = test: Fungicidal activity against Candida albicans ATCC 90028 assessed as log reduction in fungal load incubated for 48 hrs followed by replating on sabouraud dextrose agar plate and measured after 48 hrs; format: functional
Candida albicans [5] = test: Cell cycle arrest in Candida albicans ATCC 90028 assessed as accumulation at G0/G1-phase by propidium iodide staining based flow cytometry; format: functional, organism-based
Candida albicans [6] = test: Antifungal activity against Candida albicans ATCC 90028 assessed as planktonic growth inhibition at 45.53 uM after 48 hrs by M27-A3 protocol based method relative to control; format: functional; conditions: ATCC 90028, 48 h, read-out: GI
Candida albicans [7] = test: Antifungal activity against Candida albicans ATCC 90028 assessed as planktonic growth inhibition at 2.85 uM after 48 hrs by M27-A3 protocol based method relative to control; format: functional; conditions: ATCC 90028, 48 h, read-out: GI
Candida albicans [8] = test: Antifungal activity against Candida albicans ATCC 90028 assessed as planktonic growth inhibition at 0.71 uM after 48 hrs by M27-A3 protocol based method relative to control; format: functional; conditions: ATCC 90028, 48 h, read-out: GI
Candida albicans [9] = test: Antifungal activity against Candida albicans ATCC 90028 assessed as planktonic growth inhibition at 5.69 uM after 48 hrs by M27-A3 protocol based method relative to control; format: functional; conditions: ATCC 90028, 48 h, read-out: GI
Candida albicans [10] = test: Antifungal activity against Candida albicans ATCC 90028 assessed as planktonic growth inhibition at 1.42 uM after 48 hrs by M27-A3 protocol based method relative to control; format: functional; conditions: ATCC 90028, 48 h, read-out: GI
Candida albicans [11] = test: Antifungal activity against Candida albicans ATCC 90028 assessed as planktonic growth inhibition at 22.76 uM after 48 hrs by M27-A3 protocol based method relative to control; format: functional; conditions: ATCC 90028, 48 h, read-out: GI
Candida albicans [12] = test: Antifungal activity against Candida albicans ATCC 90028 assessed as planktonic growth inhibition at 0.36 uM after 48 hrs by M27-A3 protocol based method relative to control; format: functional; conditions: ATCC 90028, 48 h, read-out: GI
Candida albicans [13] = test: Antifungal activity against Candida albicans ATCC 90028 infected in Galleria mellonella larvae assessed as inhibition of fungus filamentation at 10 uL measured at 24 hrs interval for 144 hrs by HE staining based microscopic analysis; format: functional, organism-based
Candida albicans [14] = test: Antifungal activity against Candida albicans ATCC 90028 assessed as planktonic growth inhibition at 0.18 uM after 48 hrs by M27-A3 protocol based method relative to control; format: functional; conditions: ATCC 90028, 48 h, read-out: GI
[15] = Toxicity in Galleria mellonella larvae assessed as movement melanization at 41.47 uM measured after 48 hrs (reference value: 0%)
Candida albicans [16] = test: Antifungal activity against Candida albicans ATCC 90028 assessed as planktonic growth inhibition at 20.73 uM after 48 hrs by M27-A3 protocol based method relative to control; format: functional; conditions: ATCC 90028, 48 h, read-out: GI
[17] = Selectivity index, ratio of CC50 for African green monkey Vero cells to IC50 for Candida albicans ATCC 90028; format: toxicity; conditions: read-out: Ratio CC50/IC50
Candida albicans [18] = test: Induction of Candida albicans ATCC 90028 internalization in mouse RAW264.7 cells assessed as reduction in fungus-induced cell damage by measuring live and early apoptotic cells at 41.47 uM after 2 hrs acridine orange/ethidium bromide staining based confocal scanning microscopic analysis; format: functional, organism-based
Candida albicans [19] = test: Antibiofilm activity against Candida albicans ATCC 90028 assessed as inhibition of biofilm formation after 24 hrs by XTT assay; format: functional, organism-based; conditions: ATCC 90028, 24 h
[20] = Toxicity in Galleria mellonella larvae assessed as movement melanization at 41.47 uM measured after 18 hrs (reference value: 0%)
Candida albicans [21] = test: Antifungal activity against Candida albicans ATCC 90028 assessed as planktonic growth inhibition at 41.47 uM after 48 hrs by M27-A3 protocol based method relative to control; format: functional; conditions: ATCC 90028, 48 h, read-out: GI
Candida albicans [22] = test: Antifungal activity against Candida albicans ATCC 90028 assessed as planktonic growth inhibition at 0.65 uM after 48 hrs by M27-A3 protocol based method relative to control; format: functional; conditions: ATCC 90028, 48 h, read-out: GI
[23] = Toxicity in Galleria mellonella larvae assessed as survival rate at 41.47 uM measured after 48 hrs (reference value: 100%)
Candida albicans [24] = test: Antifungal activity against Candida albicans ATCC 90028 assessed as planktonic growth inhibition at 0.08 uM after 48 hrs by M27-A3 protocol based method relative to control; format: functional; conditions: ATCC 90028, 48 h, read-out: GI
Candida albicans [25] = test: Antifungal activity against Candida albicans ATCC 90028 assessed as planktonic growth inhibition at 2.59 uM after 48 hrs by M27-A3 protocol based method relative to control; format: functional; conditions: ATCC 90028, 48 h, read-out: GI
Candida albicans [26] = test: Antifungal activity against Candida albicans ATCC 90028 assessed as planktonic growth inhibition at 0.32 uM after 48 hrs by M27-A3 protocol based method relative to control; format: functional; conditions: ATCC 90028, 48 h, read-out: GI
Candida albicans [27] = test: Antifungal activity against Candida albicans ATCC 90028 assessed as planktonic growth inhibition at 10.37 uM after 48 hrs by M27-A3 protocol based method relative to control; format: functional; conditions: ATCC 90028, 48 h, read-out: GI
Candida albicans [28] = test: Antifungal activity against Candida albicans ATCC 90028 assessed as planktonic growth inhibition at 5.18 uM after 48 hrs by M27-A3 protocol based method relative to control; format: functional; conditions: ATCC 90028, 48 h, read-out: GI
Candida albicans [29] = test: Antifungal activity against Candida albicans ATCC 90028 assessed as planktonic growth inhibition at 1.3 uM after 48 hrs by M27-A3 protocol based method relative to control; format: functional; conditions: ATCC 90028, 48 h, read-out: GI
Candida albicans [30] = test: Inhibition of Candida albicans ATCC 90028 cell adhesion to human TR146 cells at reduction in cell adherence at 41.47 uM relative to control; format: functional; conditions: ATCC 90028, TR146
Candida albicans [31] = test: Antifungal activity against Candida albicans ATCC 90028 assessed as reduction in cell growth after 48 to 72 hrs in presence of ergosterol by M27-A3 protocol based method; format: functional
[32] = Toxicity in Galleria mellonella larvae assessed as survival rate at 41.47 uM measured after 18 hrs (reference value: 100%)
[33] = Toxicity in Galleria mellonella larvae assessed as survival rate at 41.47 uM measured after 120 hrs (reference value: 100%)
[34] = Toxicity in Galleria mellonella larvae assessed as cocoon formation at 41.47 uM measured after 48 hrs (reference value: 85 +/- 5%)
Candida albicans [35] = test: Induction of reactive oxygen species generation in Candida albicans ATCC 90028 assessed as ROS level at 41.47 uM after 18 hrs by DCFDA probe based flow cytometry (reference value: 0.3%); format: functional
[36] = Toxicity in Galleria mellonella larvae assessed as cocoon formation at 41.47 uM measured after 48 hrs (reference value: 100 +/- 0%)
[37] = Toxicity in Galleria mellonella larvae assessed as cocoon formation at 41.47 uM measured after 18 hrs (reference value: 60 +/- 20%)
[38] = Toxicity in Galleria mellonella larvae assessed as movement melanization at 41.47 uM measured after 128 hrs (reference value: 0%)
Candida albicans [39] = test: Antifungal activity against Candida albicans ATCC 90028 assessed as planktonic growth inhibition at 0.16 uM after 48 hrs by M27-A3 protocol based method relative to control; format: functional; conditions: ATCC 90028, 48 h, read-out: GI
Candida albicans [40] = test: Antifungal activity against Candida albicans ATCC 90028 assessed as reduction in cell growth after 48 to 72 hrs by M27-A3 protocol based method; format: functional

Fc1ccc(C2CCCN2CCCn2nnc(-c3ccccc3)n2)cc1 (configuration not stated)
Activity (Candida albicans [1]): Active | inhibition of growth at 0.09 µM (Candida albicans [2]): 99.2% | inhibition of growth at 11.38 µM (Candida albicans [3]): 99.3% | log(activity) (Candida albicans [4]): -0.5 | Activity (Candida albicans [5]): Active | inhibition of growth at 45.53 µM (Candida albicans [6]): 99.5% | inhibition of growth at 2.85 µM (Candida albicans [7]): 99.3% | inhibition of growth at 0.71 µM (Candida albicans [8]): 99.3% | inhibition of growth at 5.69 µM (Candida albicans [9]): 99.3% | inhibition of growth at 1.42 µM (Candida albicans [10]): 99.5% | inhibition of growth at 22.76 µM (Candida albicans [11]): 99.2% | inhibition of growth at 0.36 µM (Candida albicans [12]): 99.2% | inhibition (Candida albicans [13]): Active | inhibition of growth at 0.18 µM (Candida albicans [14]): 99.2%

Fc1ccc(C2CCCN2CCCn2nnc(-c3ccc(Cl)cc3)n2)cc1 (configuration not stated)
Activity [15]: 0% | inhibition of growth at 20.73 µM (Candida albicans [16]): 98.9% | selectivity ratio [17]: 2 | Activity (Candida albicans [18]): Active | IC50 (Candida albicans [19]): 10.4 µM | Activity [20]: 0% | log(activity) (Candida albicans [4]): -0.2 | inhibition of growth at 41.47 µM (Candida albicans [21]): 99% | Activity (Candida albicans [5]): Active | inhibition of growth at 0.65 µM (Candida albicans [22]): 99.4% | survival at 48 h, 41.47 µM [23]: 100% | inhibition of growth at 0.08 µM (Candida albicans [24]): 99.4% | inhibition of growth at 2.59 µM (Candida albicans [25]): 99.5% | inhibition of growth at 0.32 µM (Candida albicans [26]): 99.4% | inhibition of growth at 10.37 µM (Candida albicans [27]): 99.1% | inhibition of growth at 5.18 µM (Candida albicans [28]): 99.4% | inhibition of growth at 1.3 µM (Candida albicans [29]): 99.2% | inhibition at 41.47 µM (Candida albicans [30]): > 95% | MIC (Candida albicans [31]): 20.7 µM | survival at 18 h, 41.47 µM [32]: 100% | survival at 120 h, 41.47 µM [33]: 83% | Activity [34]: 80% | Activity (Candida albicans [35]): 12 - 16% | Activity [36]: 80% | Activity [37]: 60% | Activity [38]: 13% | inhibition of growth at 0.16 µM (Candida albicans [39]): 99.4% | MIC (Candida albicans [40]): 10.4 µM (≈ 4 µg/mL)

— ChEMBL document CHEMBL4411303, “Synthesis of tetrazole derivatives bearing pyrrolidine scaffold and evaluation of their antifungal activity against Candida albicans” (Eur J Med Chem, 2019)
